Assay results from ChEMBL document CHEMBL1201862, “PubChem BioAssay data set” (2004).
Where “and” joins values, the source holds several entries; their conditions need not be identical. Equal values may be shown once.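 Cultured in 96-well plates, cells were exposed to test compound for 48 hours across five concentrations. At the GI50, growth is halved.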 Calls of active or inactive are those of the source. Rule as the data show it: active = GI50 up to about 1.1 µM and inactive = higher.

Legend:
Assay in all cases: NCI-60 cell line screen, 48 h
RXF 631 = tested on: RXF 631
SNB-78 = tested on: SNB-78
KM-20L2 = tested on: KM-20L2
M19-MEL = tested on: M19-MEL
HOP-18 = tested on: HOP-18
LXFL 529 = tested on: LXFL 529
DLD-1 = tested on: DLD-1
DMS-114 = tested on: DMS-114
XF498 = tested on: XF498

Compound	GI50 (RXF 631)	GI50 (SNB-78)	GI50 (KM-20L2)	GI50 (M19-MEL)	GI50 (HOP-18)	GI50 (LXFL 529)	GI50 (DLD-1)	GI50 (DMS-114)	GI50 (XF498)
CC(C)O/C=C1\C(=O)C2(SCCS2)[C@H]2CCCC[C@@H]12	52.8 µM (inactive)	49 µM (inactive)	39.5 µM (inactive)	71 µM (inactive)	44.6 µM (inactive)	33.7 µM (inactive)	45.9 µM (inactive)		
CN(C(=O)c1ccco1)C(=S)N1CCN(c2ccccc2)CC1			> 100 µM (inactive)	> 100 µM (inactive)	> 100 µM (inactive)	> 100 µM (inactive)	> 100 µM (inactive)	> 100 µM (inactive)	> 100 µM (inactive)
CC1=CC(=C(c2ccc(N)c(C)c2)c2ccc(N)c(C)c2)C=CC1=N		4.84 µM (inactive)	3.33 µM (inactive)	2.65 µM (inactive)		1.27 µM (inactive)	3.78 µM (inactive)	1.2 µM (inactive)	2.91 µM (inactive)
CCCCCCCCCCCCCCCCCCOCC(COCCOCC[N+]1(CCCCCC(=O)[O-])CCCC1)Oc1ncccn1 (stereo not drawn)		2.56 µM (inactive)	1.4 µM (inactive)	0.7 µM (active)	4.85 µM (inactive)		2.18 µM (inactive)	1.21 µM (inactive)	2.1 µM (inactive)
Cc1ccc(S(=O)(=O)SC/C=C\CSS(=O)(=O)c2ccc(C)cc2)cc1		25.9 µM (inactive) and 27.2 µM (inactive)	23.2 µM (inactive) and 23.3 µM (inactive)	35.3 µM (inactive) and 44.6 µM (inactive)			22.1 µM (inactive) and 29.1 µM (inactive)		38.5 µM (inactive) and 23.4 µM (inactive)
c1ccc(SC(Sc2ccccc2)=C2CCC2)cc1	> 100 µM (inactive)	> 100 µM (inactive)	> 100 µM (inactive)	> 100 µM (inactive)			> 100 µM (inactive)	> 100 µM (inactive)	49.8 µM (inactive)
CSC1C=C(C(C)C)CCC1(C)SC (stereo not drawn)		16.5 µM (inactive)	28.2 µM (inactive)	16.9 µM (inactive)		18.4 µM (inactive)	18 µM (inactive)	15.7 µM (inactive)	19.6 µM (inactive)
Cc1nc2sccn2c1C(=O)NN	> 100 µM (inactive)		> 100 µM (inactive)	> 100 µM (inactive)	21.6 µM (inactive)	> 100 µM (inactive)	> 100 µM (inactive)	> 100 µM (inactive)	> 100 µM (inactive)
Cn1cnc([N+](=O)[O-])c1Sc1nnnn1C		12.7 µM (inactive)		15.7 µM (inactive)	9.86 µM (inactive)	12.1 µM (inactive)	14.5 µM (inactive)	17 µM (inactive)	15.6 µM (inactive)
COC(=O)C(=O)C(C(=O)C(=O)Nc1ccccc1[N+](=O)[O-])c1nc2ccc([N+](=O)[O-])cc2nc1O (stereo not drawn)	> 100 µM (inactive)	> 100 µM (inactive)	> 100 µM (inactive)	> 100 µM (inactive)	> 100 µM (inactive)	> 100 µM (inactive)		> 100 µM (inactive)	
COC12C(COC(=O)NCCO)C3=C(C(=O)C(C)=C(N)C3=O)N1CC1NC12 (stereo not drawn)		80.5 µM (inactive)	37.9 µM (inactive)	19.8 µM (inactive)	36.8 µM (inactive)	56.2 µM (inactive)	41.4 µM (inactive)	22.9 µM (inactive)	
C/C(=N/O)c1ccc2c(c1)/C(=N/O)c1cc(/C(C)=N/O)ccc1-2		17.5 µM (inactive)	17.4 µM (inactive)	19.4 µM (inactive)	14.1 µM (inactive)	14.3 µM (inactive)	16.1 µM (inactive)	22.4 µM (inactive)	21.8 µM (inactive)
COc1ccc(C(=O)C(c2ccc(OC)cc2)C2(O)C(=O)Nc3c(C)cc(Cl)cc32)cc1 (stereo not drawn)	59 µM (inactive)	> 100 µM (inactive)	> 100 µM (inactive)	20.8 µM (inactive)		37.7 µM (inactive)	76.4 µM (inactive)		
O=C(CC1(O)C(=O)Nc2c(Cl)ccc(Cl)c21)c1ccc(F)cc1 (stereo not drawn)	37 µM (inactive)	35.6 µM (inactive)	39.8 µM (inactive)		29.6 µM (inactive)	19.4 µM (inactive)	52.5 µM (inactive)	22.7 µM (inactive)	32.7 µM (inactive)
C=CCC1C(=O)CC2(C)CC(=O)C(CC=C)C12C (stereo not drawn)		> 100 µM (inactive)	> 100 µM (inactive)	> 100 µM (inactive)	> 100 µM (inactive)	> 100 µM (inactive)	> 100 µM (inactive)	> 100 µM (inactive)	> 100 µM (inactive)
O=C1C(=Cc2ccc(F)cc2)C(=O)c2ccccc21	> 100 µM (inactive)		> 100 µM (inactive)	96.2 µM (inactive)		> 100 µM (inactive)	> 100 µM (inactive)	> 100 µM (inactive)	> 100 µM (inactive)
CN(/N=C\c1ccnc2ccccc12)c1ccccc1		34.4 µM (inactive)		26.1 µM (inactive)	79.1 µM (inactive)	26.1 µM (inactive)	21.5 µM (inactive)	22.7 µM (inactive)	29.7 µM (inactive)
CCC12C=CCN(CCc3c([nH]c4ccccc34)/C=C\1)C2 (stereo not drawn)	> 100 µM (inactive)		> 100 µM (inactive)	> 100 µM (inactive)	> 100 µM (inactive)	> 100 µM (inactive)	> 10 µM (inactive)	> 100 µM (inactive)	> 100 µM (inactive)
CSc1nnc(COc2ccc(Cl)cc2)o1		> 100 µM (inactive)	> 100 µM (inactive)	> 100 µM (inactive)		> 100 µM (inactive)	> 100 µM (inactive)	> 100 µM (inactive)	> 100 µM (inactive)
O=[N+]([O-])c1cc(/C=N/NS(=O)(=O)c2ccc(F)cc2)c(O)c([N+](=O)[O-])c1		52.6 µM (inactive)	25.9 µM (inactive)	49.8 µM (inactive)	85.3 µM (inactive)		51.3 µM (inactive)	32.2 µM (inactive)	
O=C(O)CSc1nnc(-c2ccccc2O)[nH]1	> 100 µM (inactive)	> 100 µM (inactive)	> 100 µM (inactive)	> 100 µM (inactive)		> 100 µM (inactive)	> 100 µM (inactive)	> 100 µM (inactive)	> 100 µM (inactive)
O=c1c2ccccc2nc(-c2ccccc2Cl)n1NC1OC(CO)C(O)C(O)C1O (stereo not drawn)		> 100 µM (inactive)	> 100 µM (inactive)	> 100 µM (inactive)	32 µM (inactive)	> 100 µM (inactive)	> 100 µM (inactive)	> 100 µM (inactive)	> 100 µM (inactive)
NC(=O)c1nc(-c2ccc(Cl)c(Cl)c2)nc2ccccc12		> 23.7 µM (inactive)	> 100 µM (inactive)	> 38.1 µM (inactive)	34.8 µM (inactive)	> 26.4 µM (inactive)	> 22.8 µM (inactive)	> 20.4 µM (inactive)	57.8 µM (inactive)
COc1ccc(NC(=O)CC(=O)N/N=C(\C)c2cc3ccccc3oc2=O)cc1			> 100 µM (inactive)	> 100 µM (inactive)	80.5 µM (inactive)		> 100 µM (inactive)	> 100 µM (inactive)	
CC1=CC(=O)c2ccc3c4ccccc4n(C)c3c2C1=O		90.8 µM (inactive)		10.1 µM (inactive)	4.4 µM (inactive)	25.8 µM (inactive)	62.8 µM (inactive)	27.7 µM (inactive)	29.2 µM (inactive)
O=C(CN1C(=O)c2ccccc2C1=O)OC1C=CCCC1 (stereo not drawn)		> 100 µM (inactive)	> 100 µM (inactive)	> 100 µM (inactive)	> 100 µM (inactive)	> 100 µM (inactive)	> 100 µM (inactive)		
C=CCc1ccc(O)c(-c2cc(C3Oc4c(-c5cc(CC=C)ccc5O)cc(O)cc4[C@@H]3CO)ccc2O)c1 (stereo partly drawn)		39.9 µM (inactive)	26.7 µM (inactive)	33.4 µM (inactive)	32.4 µM (inactive)	19.8 µM (inactive)	18 µM (inactive)	14.9 µM (inactive)	
CCCCCCCCCCCCCCCC(=O)NCC(COP(=O)([O-])OCC[N+](C)(C)C)OCC (stereo not drawn)		14.1 µM (inactive)	4.01 µM (inactive)	4.5 µM (inactive)	0.92 µM (active)	13.1 µM (inactive)	5.19 µM (inactive)	16 µM (inactive)	12.1 µM (inactive)
